Consider one compound from patent US20050176759A1, “7-sulfonyl-3-benzazepine derivatives as modulators of the dopamine receptor and their use for the treatment cns disorders” (priority 2001, published 2005).

Structures are written as SMILES.

The target in the test is T1, serotonin 5-HT6 receptor (Homo sapiens, UniProt P50406).
T1 construct: expressed in transfected cells
As to the kind of experiment: Binding experiments on cloned 5-HT6 receptors (procedures of WO 98/27081). The source says: Binding Experiments on Cloned […] Receptors
Compounds can be tested following the procedures outlined in WO 98/27081.

T1 sequence (P50406 whole entry): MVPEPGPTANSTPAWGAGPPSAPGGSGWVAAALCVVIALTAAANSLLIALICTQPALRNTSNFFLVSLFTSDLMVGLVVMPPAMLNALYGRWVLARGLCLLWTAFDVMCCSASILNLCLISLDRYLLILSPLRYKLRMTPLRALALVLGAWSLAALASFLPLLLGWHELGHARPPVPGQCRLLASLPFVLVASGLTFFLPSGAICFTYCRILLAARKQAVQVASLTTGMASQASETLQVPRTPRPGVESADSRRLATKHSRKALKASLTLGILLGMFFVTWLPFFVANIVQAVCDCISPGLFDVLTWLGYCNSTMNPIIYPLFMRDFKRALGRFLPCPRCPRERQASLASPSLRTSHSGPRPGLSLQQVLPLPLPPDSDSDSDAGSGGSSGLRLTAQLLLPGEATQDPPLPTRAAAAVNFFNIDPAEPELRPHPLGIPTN

Usually Ki stands for the dissociation constant of the complex between target and ligand, obtained from inhibition or displacement. A lower Ki goes with higher affinity. As for `O=S(=O)(c1ccc2c(c1)CCNCC2)c1c[nH]c2ccccc12` [Example 43, 7-(3-(1H-indolyl)sulfonyl)-2,3,4,5-tetrahydro-1H-3-benzazepine], the Ki fell in the range of 0.1 to 1 nM.
